In brackets after ≈: the same amount, converted by molar mass.
Columns and labels:
E. coli pBC SK(−) = assay: MIC by agar dilution, E. coli DH10B with empty pBC SK; type: cell-based; details: Escherichia coli
[1] = tested on: E. coli DH10B pBCSK(−) producing R228M; assay: MIC by agar dilution, E. coli DH10B pBCSK; type: cell-based; details: Escherichia coli
[2] = tested on: E. coli DH10B pBCSK(−) producing R228Y; assay: MIC by agar dilution, E. coli DH10B pBCSK; type: cell-based; details: Escherichia coli
VIM-24 [3] = molecular target: T1, VIM-24 (Escherichia coli, UniProt Q5U7L7, R205L); assay: Hydrolysis of cefepime and ceftazidime by periplasm preparations, VIM-24; type: biochemical, Klebsiella pneumoniae; details: VIM-24 periplasmic preparation; 400 μM ceftazidime
[4] = tested on: E. coli DH10B pBCSK(−) producing R228P; assay: MIC by agar dilution, E. coli DH10B pBCSK; type: cell-based; details: Escherichia coli
[5] = tested on: E. coli DH10B pBCSK(−) producing R228X (other variants); assay: MIC by agar dilution, E. coli DH10B pBCSK; type: cell-based; details: Escherichia coli, R228X: range of MIC values of the other variants; MHA
VIM-24 [6] = type: biochemical, Klebsiella pneumoniae; details: VIM-24 (R228L) vs VIM-2
[7] = tested on: E. coli DH10B pBCSK(−) producing VIM-2 (228R); assay: MIC by agar dilution, E. coli DH10B pBCSK; type: cell-based; details: Escherichia coli
[8] = tested on: E. coli DH10B pBCSK(−) producing R228K; assay: MIC by agar dilution, E. coli DH10B pBCSK; type: cell-based; details: Escherichia coli
[9] = tested on: E. coli DH10B pBCSK(−) producing VIM-24 (R228L); assay: MIC by agar dilution, E. coli DH10B pBCSK; type: cell-based; details: Escherichia coli
[10] = tested on: E. coli DH10B pBCSK(−) producing R228Q; assay: MIC by agar dilution, E. coli DH10B pBCSK; type: cell-based; details: Escherichia coli
VIM-2 = VIM-2 (Escherichia coli, UniProt Q5U7L7); assay: Hydrolysis of cefepime and ceftazidime by periplasm preparations, VIM-2; type: biochemical, P. aeruginosa; details: VIM-2 periplasmic preparation; 400 μM ceftazidime
VIM-24 [11] = molecular target: T1, VIM-24; type: biochemical, Klebsiella pneumoniae; details: VIM-24; substrate hydrolysis, 10 mM HEPES pH 7.5, 25 °C
[12] = tested on: VIM-24-producing K. pneumoniae; assay: Imipenem MIC of the clinical isolate, VIM-24-producing K. pneumoniae; type: cell-based; details: Klebsiella pneumoniae, read-out: imipenem MIC, VIM-24-producing K. pneumoniae
[13] = tested on: VIM-2-producing P. aeruginosa; assay: Imipenem MIC of the clinical isolate, VIM-2-producing P. aeruginosa; type: cell-based, Pseudomonas aeruginosa
[14] = tested on: CC(=O)OCC1=C(C(=O)O)N2C(=O)[C@@H](NC(=O)Cc3cccs3)[C@H]2SC1; assay: purified protein, by the assay type; details: other: VIM-2, substrate hydrolysis, 10 mM HEPES pH 7.5, 25 °C
[15] = tested on: O=C(Cc1cccs1)N[C@@H]1C(=O)N2C(C(=O)O)=C(/C=C/c3ccc([N+](=O)[O-])cc3[N+](=O)[O-])CS[C@H]12; assay: purified protein, by the assay type; details: other: VIM-2, substrate hydrolysis, 10 mM HEPES pH 7.5, 25 °C
[16] = tested on: C[C@@H](O)[C@H]1C(=O)N2C(C(=O)O)=C(SCCN=CN)C[C@H]12; assay: purified protein, by the assay type; details: other: VIM-2, substrate hydrolysis, 10 mM HEPES pH 7.5, 25 °C

CC(C)(O/N=C(\C(=O)N[C@@H]1C(=O)N2C(C(=O)[O-])=C(C[n+]3ccccc3)CS[C@H]12)c1csc(N)n1)C(=O)O [ceftazidime]
MIC (E. coli pBC SK(−); MHA): 0.06 µg/mL (≈ 0.11 µM) | MIC (E. coli pBC SK(−); MHA + 5 μM EDTA): ≤ 1 µg/mL | MIC (E. coli pBC SK(−); MHA + 250 μM Zn^2+): ≤ 1 µg/mL | MIC ([1]; MHA): 128 µg/mL (≈ 234 µM) | MIC ([1]; MHA + 5 μM EDTA): 64 µg/mL | MIC ([1]; MHA + 250 μM Zn^2+): 256 µg/mL | MIC ([2]; MHA): 64 µg/mL (≈ 117 µM) | MIC ([2]; MHA + 5 μM EDTA): 64 µg/mL | MIC ([2]; MHA + 250 μM Zn^2+): 128 µg/mL | rate of hydrolysis (initial velocity) in periplasm (VIM-24 [3]): 4e-07 M/s | MIC ([4]; MHA): 1 µg/mL (≈ 1.83 µM) | MIC ([4]; MHA + 5 μM EDTA): ≤ 1 µg/mL | MIC ([4]; MHA + 250 μM Zn^2+): 4 µg/mL | MIC [5]: 16 to 128 µg/mL (≈ 29.3 to 234 µM) | kcat/KM increase of VIM-24 compared to VIM-2 (VIM-24 [6]): 6 fold | MIC ([7]; MHA): 16 µg/mL (≈ 29.3 µM) | MIC ([7]; MHA + 5 μM EDTA): 16 µg/mL | MIC ([7]; MHA + 250 μM Zn^2+): 32 µg/mL | MIC ([8]; MHA): 1 µg/mL (≈ 1.83 µM) | MIC ([8]; MHA + 5 μM EDTA): ≤ 1 µg/mL | MIC ([8]; MHA + 250 μM Zn^2+): ≤ 1 µg/mL | MIC ([9]; MHA): 64 µg/mL (≈ 117 µM) | MIC ([9]; MHA + 5 μM EDTA): 32 µg/mL | MIC ([9]; MHA + 250 μM Zn^2+): 128 µg/mL | MIC ([10]; MHA): 128 µg/mL (≈ 234 µM) | MIC ([10]; MHA + 5 μM EDTA): 128 µg/mL | MIC ([10]; MHA + 250 μM Zn^2+): 512 µg/mL | rate of hydrolysis (initial velocity) in periplasm (VIM-2): measurable rates of hydrolysis were not obtained

CO/N=C(\C(=O)N[C@@H]1C(=O)N2C(C(=O)O)=C(CSc3nc(=O)c(=O)[nH]n3C)CS[C@H]12)c1csc(N)n1 [ceftriaxone]
MIC (E. coli pBC SK(−); MHA): 0.5 µg/mL (≈ 0.902 µM) | MIC ([1]; MHA): 16 µg/mL (≈ 28.9 µM) | MIC ([2]; MHA): 16 µg/mL (≈ 28.9 µM) | MIC ([4]; MHA): 0.5 µg/mL (≈ 0.902 µM) | MIC [5]: 1 to 16 µg/mL (≈ 1.8 to 28.9 µM) | MIC ([7]; MHA): 8 µg/mL (≈ 14.4 µM) | MIC ([8]; MHA): 1 µg/mL (≈ 1.8 µM) | MIC ([9]; MHA): 8 µg/mL (≈ 14.4 µM) | MIC ([10]; MHA): 32 µg/mL (≈ 57.7 µM)

CC(=O)OCC1=C(C(=O)O)N2C(=O)[C@@H](NC(=O)Cc3cccs3)[C@H]2SC1 [cephalothin]
MIC (E. coli pBC SK(−); MHA): 8 µg/mL (≈ 20.2 µM) | MIC ([1]; MHA): 256 µg/mL (≈ 646 µM) | MIC ([2]; MHA): 256 µg/mL (≈ 646 µM) | MIC ([4]; MHA): 16 µg/mL (≈ 40.4 µM) | MIC [5]: 64 to 256 µg/mL (≈ 161 to 646 µM) | kcat (VIM-24 [11]): 150 ± 9 s⁻¹ | MIC ([7]; MHA): 256 µg/mL (≈ 646 µM) | MIC ([8]; MHA): 16 µg/mL (≈ 40.4 µM) | MIC ([9]; MHA): 256 µg/mL (≈ 646 µM) | MIC ([10]; MHA): 1020 µg/mL (≈ 2580 µM)

C[C@@H](O)[C@H]1C(=O)N2C(C(=O)O)=C(SCCN=CN)C[C@H]12 [imipenem]
MIC (E. coli pBC SK(−); MHA): 0.25 µg/mL (≈ 0.835 µM) | MIC (E. coli pBC SK(−); MHA + 5 μM EDTA): ≤ 0.125 µg/mL | MIC (E. coli pBC SK(−); MHA + 250 μM Zn^2+): 0.25 µg/mL | MIC ([1]; MHA): 2 µg/mL (≈ 6.68 µM) | MIC ([1]; MHA + 5 μM EDTA): 1 µg/mL | MIC ([1]; MHA + 250 μM Zn^2+): 4 µg/mL | MIC ([2]; MHA): 1 µg/mL (≈ 3.34 µM) | MIC ([2]; MHA + 5 μM EDTA): 1 µg/mL | MIC ([2]; MHA + 250 μM Zn^2+): 1 µg/mL | MIC [12]: 2 µg/mL | MIC ([4]; MHA): 0.5 µg/mL (≈ 1.67 µM) | MIC ([4]; MHA + 5 μM EDTA): ≤ 0.125 µg/mL | MIC ([4]; MHA + 250 μM Zn^2+): 0.25 µg/mL | MIC [5]: 0.25 to 1 µg/mL (≈ 0.835 to 3.34 µM) | MIC ([13]; Pseudomonas aeruginosa, read-out: imipenem MIC): 32 µg/mL | imipenem MIC ([13]; VIM-2 harboring P. aeruginosa clinical isolate): 32 µg/mL | Km (VIM-24 [11]): 5 ± 0.7 µM | kcat (VIM-24 [11]): 8.8 ± 0.3 s⁻¹ | MIC ([7]; MHA): 0.5 µg/mL (≈ 1.67 µM) | MIC ([7]; MHA + 5 μM EDTA): 0.5 µg/mL | MIC ([7]; MHA + 250 μM Zn^2+): 1 µg/mL | MIC ([8]; MHA): 0.25 µg/mL (≈ 0.835 µM) | MIC ([8]; MHA + 5 μM EDTA): 0.25 µg/mL | MIC ([8]; MHA + 250 μM Zn^2+): 0.25 µg/mL | MIC ([9]; MHA): 0.5 µg/mL (≈ 1.67 µM) | MIC ([9]; MHA + 5 μM EDTA): 0.5 µg/mL | MIC ([9]; MHA + 250 μM Zn^2+): 1 µg/mL | MIC ([10]; MHA): 4 µg/mL (≈ 13.4 µM) | MIC ([10]; MHA + 5 μM EDTA): 4 µg/mL | MIC ([10]; MHA + 250 μM Zn^2+): > 4 µg/mL

O=C(Cc1cccs1)N[C@@H]1C(=O)N2C(C(=O)O)=C(/C=C/c3ccc([N+](=O)[O-])cc3[N+](=O)[O-])CS[C@H]12 [nitrocefin]
kcat (VIM-24 [11]): 171 ± 4 s⁻¹

VIM-2 (Escherichia coli)
Km [14]: 17 ± 2 µM | kcat [14]: 168 ± 8 s⁻¹ | kcat/Km [14]: 9.8e+06 M⁻¹ s⁻¹ | Km [15]: 13 ± 1 µM | kcat [15]: 430 ± 20 s⁻¹ | kcat/Km [15]: 3.3e+07 M⁻¹ s⁻¹ | Km [16]: 12 ± 1 µM | kcat [16]: 45 ± 1 s⁻¹ | kcat/Km [16]: 3.6e+06 M⁻¹ s⁻¹

Source: PMC4700511 (Biochemistry, 2015)
